One assay has as its target T1, JNK1α1 (Homo sapiens, UniProt P45983).
T1 construct: GST; host or cells: E. coli BL21(DE3) pLysS
The assay can be described thus: BLI binding of biotinylated NOS3 peptides to JNK1α1. As to conditions: for Kd / koff / kon: BLI, global one-state fit; for Kd: inactive (unphosphorylated) JNK1α1 31-1000 nM, biotinylated peptide ligand, 25 °C, PBS, 10% glycerol, 0.005% tween, 1 mM DTT; for koff / kon: inactive JNK1α1, 25 °C, PBS buffer; for binding of phosphopeptide: BLI sensorgram, kinase analyte JNK1α1. On the procedure: (§1) Biolayer interferometry (BLI) experiments were performed on a FortéBio (Menlo Park, CA) Octet QK biosensor using streptavidin (SA) sensors. Assays were performed in opaque 96‐well microplates at 25 °C. All volumes were 200 μL. Active GST‐JNK1α1 (SignalChem) was biotinylated by amine crosslinking to NHS‐LC‐LC‐biotin (succinimidyl‐6‐[biotinamido]‐6‐hexanamidohexanoate) (Thermo Fisher, Waltham, MA, USA). Reactions were performed at a 5 : 1 molar ratio of biotin to protein for 30 min at room temperature followed by separation of protein from free biotin by passage over a desalting column. Biotinylated JNK1α1 was loaded onto sensors for 300 s, which was sufficient to saturate them. Baseline was established by dipping sensors into binding buffer (50 mM Tris, pH 7.4, 10 mM NaCl, 10% glycerol, 0.01% Tween‐20) prior to moving sensors to wells containing varying concentrations of serially diluted NOS3 in the same buffer. Association was measured for 300 s, after which sensors were moved to wells containing buffer only and dissociation was monitored for another 300 s. Raw data were normalized for baseline drift by subtracting signal from a ligand‐saturated sensor exposed to buffer only throughout the experiment and then iteratively fit to a one‐state global association‐then‐dissociation binding model using GRAPHPAD Prism. Total binding was used for analysis as nonspecific binding measured by exposing sensors without ligand to analyte was negligible at all NOS3 concentrations used; that is, total binding was effectively specific binding due to very low nonspecific binding.
(§2) For peptide binding experiments, N‐terminally biotinylated peptides (Biomatik) (Table 1) in PBS with 10% glycerol, 0.005% tween, and 1 mM DTT were loaded onto SA sensors as above. After establishing baseline, sensors were exposed to serial dilutions of analyte MAP kinases ranging from 31 to 1000 nM. Peptide experiments were performed using parameters identical to the protein ligand experiments excepting the buffer was PBS with 10% glycerol, 0.005% tween, and 1 mM DTT throughout.
(§3) We tested both hypothesized interaction sites and the impact of nearby phosphorylation sites using: (a) a nonphosphorylated peptide corresponding to the putative NtMAP site (Fig. 1); (b) the identical peptide with S114 phosphorylated; (c) a nonphosphorylated peptide corresponding to the AI loop site; and (d) an identical peptide phosphorylated at the position corresponding to S633. The resultant sensorgrams are shown in Fig. 4 fit to global one‐state binding models to determine binding parameters. While there are complexities present in the data (see Discussion), a one‐state models fit very well to all peptide‐kinase curves. All three kinases bound both unphosphorylated peptides with submicromolar affinity that in most cases approximated the affinity observed for full‐length NOS3 reported above and in our prior report.
Background: In BLI a coated tip is dipped into the sample, and binding shifts an interference pattern.

The target of a further assay is T2, p38α (Homo sapiens, UniProt Q16539).
T2 construct: His; made in house; host or cells: E. coli BL21(DE3) pLysS
The assay can be described thus: BLI binding of biotinylated NOS3 peptides to p38α. As to conditions: for koff / kon: BLI, inactive p38α, 25 °C, PBS buffer, global one-state fit; for binding of phosphopeptide: BLI sensorgram, kinase analyte p38α. On the procedure:
as §1, §2, §3

Another assay concerns the target T3, ERK2 (Rattus norvegicus, UniProt P63086).
T3 construct: His; host or cells: E. coli BL21(DE3) pLysS
In words: BLI binding of biotinylated NOS3 peptides to ERK2. The conditions noted are these: for Kd / koff / kon: BLI, global one-state fit; for Kd: inactive (unphosphorylated) ERK2 31-1000 nM, biotinylated peptide ligand, 25 °C, PBS, 10% glycerol, 0.005% tween, 1 mM DTT; for koff / kon: inactive ERK2, 25 °C, PBS buffer; for binding of phosphopeptide: BLI sensorgram, kinase analyte ERK2. On the procedure: as §1, §2, §3

Assay [1] concerns NOS3. The assay can be described thus: TCSPC fluorescence lifetime, conformation of NOS3. As to conditions: FMN excited at 473 nm, detected at 525 nm. On the procedure: Time‐resolved intensity decays were recorded using time‐correlated single‐photon counting fluorescence lifetime spectrometry (TCSPC FLT) to determine whether phosphorylation by JNK1α1 changes the conformation of NOS3.

The test system of assay [2] is NOS3. The assay can be described thus: NOS3 phosphorylation status in HMEC-1 cells. In kind it is cell-based, human. As to conditions: data not shown. On the procedure: Human microvascular endothelial cells (HMEC‐1) (CRL‐3243, ATCC) were cultured in MCDB131 medium. HMEC‐1 cells were maintained as described by the ATCC in MCDB131 supplemented with 10% FBS, 1 µg·mL^−1 Hydrocortisone, 10 mM Glutamine, and 10 ng·mL^−1 Epidermal Growth Factor under an atmosphere of 5% CO2 at 37 °C.

Assay [3] concerns NOS3. In words: Oxyhemoglobin assay of NO production by kinase-treated NOS3. In kind it is biochemical, human. As to conditions: oxyHb assay, 2.5 µM NOS3 with ERK2 14 nM (N = 10), p38α 14 nM (N = 4), JNK1α1-GST 63 nM (N = 3) or PKA 14 nM (N = 4), 30 min; versus untreated NOS3. On the procedure: (§4) Active (HIS‐NOS3) was incubated alone or with individual kinases (ERK2, p38α, JNK1α1, and PKA) in 100 µL reaction buffer (20 mM HEPES, 0.5 mM DTT, 5 mM MgCl2, 0.5 mM ATP, and 10% glycerol at a pH of 7.4). The reactions were performed at 22‐25 °C for up to 1 h, and for the examination of nitric oxide activity, samples were incubated on ice for the immediate detection of NO via the oxyhemoglobin to methemoglobin assay (see below). For immunoblotting analysis to examine phosphorylation, kinase samples were quenched with 2× sample buffer spiked with 25 mM DTT and heated to 95 °C for 5 min. Boiled samples (at equal volumes) were electrophoresed and transferred to PDVF for immunoblot staining.
The oxyhemoglobin assay (oxyHb assay) is a spectroscopic method that measures the oxidative reaction of oxyhemoglobin at 421 nm (oxyHb) and methemoglobin (metHb) at 401 nm. Kinase assay reactions quenched on ice were used to measure NO synthesis and consumption. All oxyHb reactions were performed at 25 °C in a BioTek 96‐well UV‐visible spectrophotometer. Each reaction (100 µL total volume) was mixed with 40 µL of reaction buffer (1 μM FAD, 1 μM FMN, 10% glycerol, 12 nM BH4, 100 μM L‐arginine, 10 mM Tris/HCl, pH 7.5 at 25°, 250 μM CaCl2, 0.20 mg·mL^−1 BSA, 0.31 mg Hemoglobin, 7–10 U Superoxide Dismutase, 7–10 U Catalase, and 17 μg Calmodulin) and up to 40 µL (6–10 µg) of phosphorylated NOS3. Absorbance at 401 nm and 421 nm were read for 1 m at 15‐s intervals. To initiate the reaction, 20 µL of 200 mM NADPH reconstituted in Tris/HCl (1.4 M pH 7.5 at room temperature) was added. Measurements were recorded for 10 min at 15‐s intervals.
To calculate NOS3 activity, the change in absorbance/unit time was divided by the extinction coefficient (ε401‐421 = 77 200 M ^−1cm^−1 (ε401 = 38 600 M ^−1cm^−1)). This yielded NOS3 activity in units of molar change/unit time. Activity of kinase exposed NOS3 was compared to the NOS3 control activity (comparably treated NOS3 but not phosphorylated), and the data are presented as a percent of the control NOS3.

Assay [4] addresses NOS3. As to conditions: full-length NOS3; previously reported; ref [4]; cited from earlier work. The text has this:
While there is substantial nonspecific binding inherent in the NOS1 sample, it is quite clear that there is no observable specific binding. […] This was not surprising since others have qualitatively shown an interaction between NOS3 and JNK [10] and the MAP kinases have similarities in the requirements of binding to activators and substrates. Lack of binding to NOS1 by all three MAP kinases examined thus far strengthens the interpretation that NOS3 is a node for MAP kinase signaling, while NOS1 and NOS2 are not.

The next assay deals with NOS1. The conditions noted are these: previous studies; ref [4]; cited from earlier work. The source says: While there is substantial nonspecific binding inherent in the NOS1 sample, it is quite clear that there is no observable specific binding. […] The NOS1 isoform lacks the pentabasic sequence in the autoinhibitory loop that we hypothe ...
The subject of assay [5] is NOS3. In words: In vitro kinase assay with NOS3, phospho-specific immunoblotting. In kind it is biochemical, human. The conditions noted are these: active kinases with NOS3, 5 and 60 min. On the procedure: as §4
All samples were loaded at equal volumes on 3–8% gradient tris‐acetate gels. All gels were transferred to PVDF membranes and transferred for either 2 h at 40V or for 20V overnight. Membranes were blocked with one block (Li‐Cor Biosciences) for 30 m and incubated with respective antibodies (at manufacturers recommend concentrations for immunoblotting, 1 : 500 for the anti‐pS600‐NOS3) overnight at 4 °C. Blots were brought to RT for 30 m and washed 3× with 1X TBST for 10 m, probed with a fluorometric secondary antibody (Li‐Cor IRDye®) for 1 h, and washed before visualizing with a Li‐Cor Odyssey.
On the technique in general: A western blot detects proteins with antibodies after separation by electrophoresis.

Entries after “also recorded” stand apart in the source; their conditions may differ. Where a SMILES comes first, the peptide text is derived from it. Where no end group is shown, it is not given here.

T1 sequence (P45983 1-384 isoform P45983-2, species assumed): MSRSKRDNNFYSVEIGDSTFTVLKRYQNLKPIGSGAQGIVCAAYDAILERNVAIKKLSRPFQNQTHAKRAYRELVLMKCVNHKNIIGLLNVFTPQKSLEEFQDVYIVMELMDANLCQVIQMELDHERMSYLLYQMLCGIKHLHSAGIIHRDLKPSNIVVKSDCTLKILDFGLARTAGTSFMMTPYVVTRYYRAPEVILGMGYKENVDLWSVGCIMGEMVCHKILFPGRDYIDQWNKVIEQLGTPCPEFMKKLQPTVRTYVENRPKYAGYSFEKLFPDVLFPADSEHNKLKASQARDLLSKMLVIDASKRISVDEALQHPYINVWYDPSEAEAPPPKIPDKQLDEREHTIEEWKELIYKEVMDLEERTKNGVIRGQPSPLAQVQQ
T3 sequence (P63086 whole entry): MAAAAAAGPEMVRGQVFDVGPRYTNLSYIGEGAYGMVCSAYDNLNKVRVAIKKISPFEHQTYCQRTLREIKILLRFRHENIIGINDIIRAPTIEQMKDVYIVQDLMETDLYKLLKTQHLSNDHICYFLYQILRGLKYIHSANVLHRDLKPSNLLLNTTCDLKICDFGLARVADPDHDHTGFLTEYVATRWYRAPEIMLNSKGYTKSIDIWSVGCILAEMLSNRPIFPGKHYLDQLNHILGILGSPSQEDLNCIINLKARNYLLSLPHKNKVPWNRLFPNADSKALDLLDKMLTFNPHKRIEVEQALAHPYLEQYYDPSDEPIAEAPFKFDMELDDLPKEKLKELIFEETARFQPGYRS
T2 sequence (Q16539 whole entry): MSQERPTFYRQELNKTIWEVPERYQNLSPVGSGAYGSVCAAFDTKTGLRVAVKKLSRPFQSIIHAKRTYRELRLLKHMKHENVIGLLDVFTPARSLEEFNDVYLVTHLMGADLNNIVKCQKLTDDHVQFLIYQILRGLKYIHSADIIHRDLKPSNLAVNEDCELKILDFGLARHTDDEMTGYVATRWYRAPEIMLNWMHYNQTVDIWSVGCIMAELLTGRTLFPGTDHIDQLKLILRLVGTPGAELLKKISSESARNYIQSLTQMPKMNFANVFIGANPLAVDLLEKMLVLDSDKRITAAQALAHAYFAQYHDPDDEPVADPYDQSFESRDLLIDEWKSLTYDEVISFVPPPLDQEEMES

With `CC(C)C[C@H](NC(=O)[C@H](CS)NC(=O)[C@H](CCCNC(=N)N)NC(=O)[C@H](CCCNC(=N)N)NC(=O)[C@@H]1CCCN1C(=O)[C@@H](NC(=O)[C@@H](N)CS)[C@@H](C)O)C(=O)NCC(=O)N[C@@H](CO)C(=O)N[C@@H](CC(C)C)C(=O)N[C@H](C(=O)N[C@@H](Cc1ccccc1)C(=O)N1CCC[C@H]1C(=O)N[C@@H](CCCNC(=N)N)C(=O)N[C@@H](CCCCN)C(=O)N[C@@H](CC(C)C)C(=O)N[C@@H](CCC(N)=O)C(=O)NCC(=O)N[C@@H](CCCNC(=N)N)C(=O)N1CCC[C@H]1C(=O)N[C@@H](CO)C(=O)N1CCC[C@H]1C(=O)NCC(=O)N1CCC[C@H]1C(=O)N1CCC[C@H]1C(=O)N[C@@H](C)C(=O)O)C(C)C` [NtMAP] (H-CTPRRCLGSLVFPRKLQGRPSPGPPA-OH), at JNK1α1, the Kd was 38 nM, the koff was 0.00054 s⁻¹ and the kon is 14100 M⁻¹ s⁻¹. Also, at p38α, the koff was found to be 0.00053 s⁻¹ and the kon came out at 17300 M⁻¹ s⁻¹. Besides, at ERK2, the Kd is 940 nM, the koff worked out at 0.00623 s⁻¹ and the kon was 6600 M⁻¹ s⁻¹.

In the case of “CTPRRCLGSLVFPRKLQGRPS*PGPPA [NtMAP with phosphorylated S114, NtMAP peptide with S114 phosphorylated]”, the binding of phosphopeptide entry at JNK1α1, at p38α and on ERK2 was “negligible binding” in each case.

As for Calmodulin [reference compound], in the assay with NOS3 [1] (NOS3 holoenzyme), the “conformation of NOS3 (fluorescence decay)” value is recorded as “produced a change in conformation indicative of active NOS3”. In addition, the “conformation of JNK1α1-treated NOS3 (fluorescence decay)” value in the assay with NOS3 [1] (calmodulin on JNK1α1-treated NOS3) was “produced the same degree of shift (activation) in JNK1α1‐treated NOS3”.

With Epidermal Growth Factor [EGF], the NOS3 phosphorylation status entry in the assay on NOS3 [2] is “altered NOS3 phosphorylation status”.

“YKIRFNSISCSDPLVSSWRRKRKES*SNTDSA [AI with phosphorylated S633, AI loop peptide phosphorylated at the position corresponding to S633]”: the binding of phosphopeptide entry at JNK1α1, at p38α and at ERK2 was “negligible binding” throughout.

YKIRFNSISCSDPLVSSWRRKRKESSNTDSA [AI]: the Kd was determined as 3 nM at JNK1α1 and 170 nM at ERK2. Further, the koff at JNK1α1 is 0.00025 s⁻¹; at p38α, 0.00096 s⁻¹; at ERK2, 0.002 s⁻¹. The kon at JNK1α1 amounted to 84600 M⁻¹ s⁻¹; on p38α, 15900 M⁻¹ s⁻¹; on ERK2, 12100 M⁻¹ s⁻¹.

As to “cAMP‐dependent protein kinase [PKA, reference compound]”, the “NO production / NOS3 activity” value in the assay with NOS3 [3] is listed as “increased production of NO; also recorded: increased activity”.

For “insulin: insulin, treatment of HMEC-1 cells”, the NOS3 phosphorylation status result in the assay on NOS3 [2] is given as “altered NOS3 phosphorylation status”.

Turning to “mitogen‐activated protein kinase 14 [p38α]”, the Kd on NOS3 [4] is 80 nM. The “binding to NOS1” value in the assay with NOS1 is reported as “no binding to NOS1”. Further, in the assay with NOS3 [3], the “NO production / NOS3 activity” value is “do not significantly change NO production; also recorded: did not alter in vitro NOS3 activity”. For the same compound, in the assay on NOS3 [5] (immunoblot with anti-pS114), the “phosphorylation of NOS3 at S114” value was “phosphorylates both residues; also recorded: easily detected when compared to ERK2”. Besides, in the assay with NOS3 [5] (immunoblot with anti-pS600), the “phosphorylation of NOS3 at S600” value is recorded as “phosphorylates both residues; also recorded: robust when compared to JNK1α1”.

The Kd is the free concentration of one partner at which half of the binding sites on the other are occupied at equilibrium, for simple one-to-one binding. For orientation: koff means the first-order rate constant of dissociation. One may read the kon as the rate constant with which the complex forms.

The values are drawn from publication PMC9063426, “MAP kinases differentially bind and phosphorylate NOS3 via two unique NOS3 sites” (FEBS Open Bio, 2022).
